# Reference: US4417052A, “Phenyl-lower-alkyl piperidines and pyrrolidines” (Sterling Drug Inc., priority 1981, dated 1983)
# Where a name gives a salt, the structure may show the parent alone.
# Legend:
# [1] = test system: adjuvant-induced arthritis; experiment: inhibition of adjuvant-induced arthritis test (A.A.); type: in vivo; conditions: oral; for inhibition in vivo at 160 µmol/kg: dose 0.16 millimoles/kg; for inhibition in vivo at 5 µmol/kg: dose 0.005 millimoles/kg; for inhibition in vivo at 20 µmol/kg: dose 0.02 millimoles/kg; for A.A. percent inhibition (Table B): formula V amides; for A.A. percent inhibition (Table B, footnote a): (a) data obtained after 17 days on test and 9 medications
# Procedure: (§1) Anti-inflammatory activity was determined using (1) the inhibition of carrageenin-induced foot edema test essentially described by Winter et al., Proc. Soc. Exp. Biol. and Med. 111, 554 (1962) as modified by Van Arman et al., J. Pharmacol. Exptl. Therap. 150, 328 (1965) and (2) a modification of the inhibition of adjuvant-induced arthritis test described by Pierson, J. Chronic Diseases 16, 863 (1963) and Glenn et al., Am. J. Vet. Res. 26, 1180 (1965).
# (§2) The N-{2-,3- and 4-[R1 -(phenyl)-C(=X)]-phenyl-lower-alkyl}amines of formulas I, Ia and Ib of the invention have been tested in the carrageenin edema (CE) and adjuvant arthritis (AA) tests and found to have anti-inflammatory activity. For comparative purposes, data obtained in the carrageenin edema test on the reference compound (designated "Ref."), 4[(3-benzoylphenyl)methyl]morpholine, disclosed in French Patent 1,549,342, are also given. All data were obtained on oral administration.
# [2] = test system: carrageenin-induced foot edema; experiment: inhibition of carrageenin-induced foot edema test (C.E.); type: in vivo; conditions: oral; for inhibition in vivo at 4 µmol/kg: dose 0.004 millimoles/kg; for inhibition in vivo at 20 µmol/kg: dose 0.02 millimoles/kg; for C.E. percent inhibition (Table B): formula V amides; for C.E. percent inhibition (Table B, footnote a): (a) data obtained after 17 days on test and 9 medications
# Procedure: as §1, §2
# [3] = test system: acetylcholine-induced abdominal constriction; experiment: acetylcholine-induced abdominal constriction test (Ach); type: in vivo, mice; conditions: Mus musculus, po, read-out: Ach ED50
# Description: J. Pharmacol. Chemotherap. 32, 295 (1968); a modification of the anti-bradykinin test, which is also a primary analgesic screening procedure, described by Berkowitz et al., J. Pharmacol. Exp. Therap. 177, 500-508 (1971), Blane et al., J. Pharm. Pharmacol. 19, 367-373 (1967), Botha et al., Eur. J. Pharmacol. 6, 312-321 (1969) and Deffenu et al., J. Pharm. Pharmacol. 18, 135 (1966); the phenyl-p-quinone-induced writhing test, also a primary analgesic screening test, designed to measure the ability of a test agent to prevent phenyl-p-quinone-induced writhing in mice, described by Pearl and Harris, J. Pharmacol. Exptl. Therap. 154, 319-323 (1966); the rat tail flick radiant thermal heat analgesic (agonist) test described by D'Amour and Smith, J. Pharmacol. Exptl. Therap. 72, 74 (1941) as modified by Bass and VanderBrook, J. Am. Pharm. Assoc. Sci. Ed. 41, 569 (1956); and the phenazocine antagonist test, which is designed to measure the ability of a test agent to antagonize the effect of phenazocine in the above-indicated rat tail flick response test, described by Harris and Pierson, J. Pharmacol. Exptl. Therap. 143, 141 (1964).
# The ED50 is the calculated Effective Dose in 50% of the test animals. The abbreviations s.c., p.o. and i.p. stand for subcutaneous, peroral and intraperitoneal routes of administration, respectively. The compounds are identified by the Example numbers above where their preparations are described.
# [4] = read-out: A.A. percent inhibition
# [5] = dose 0.08 millimoles/kg, read-out: C.E. percent inhibition
# [6] = dose 0.324 millimoles/kg, read-out: C.E. percent inhibition
# [7] = dose 0.08 millimoles/kg, read-out: A.A. percent inhibition
# [8] = read-out: C.E. percent inhibition
smiles,measurement,setting,value
"CC(CN1CCCC1CC1CCCCC1)c1cccc(C(O)c2ccccc2)c1 (stereo not drawn) [Example 3B, 2-Cyclohexylmethyl-1-{2-[3-(α-hydroxybenzyl)phenyl]propyl}pyrrolidine]",inhibition in vivo at 160 µmol/kg,[1]; [4],91%
same,inhibition in vivo at 80 µmol/kg,[2]; [5],19%
same,inhibition in vivo at 324 µmol/kg,[2]; [6],63%
"CC(CN1CCCCC1CC1CCCCC1)c1cccc(C(=O)c2ccc(F)cc2)c1 (centres unmarked) [Example 7B, 2-Cyclohexylmethyl-1-{2-[3-(4-fluorobenzoyl)phenyl]propyl}piperidine]",inhibition in vivo at 5 µmol/kg,[1]; [4],61%
same,inhibition in vivo at 20 µmol/kg,[1]; [4],55%
same,inhibition in vivo at 80 µmol/kg,[1]; [7],85%
same,inhibition in vivo at 4 µmol/kg,[2]; [8],3%
same,inhibition in vivo at 20 µmol/kg,[2]; [8],38%
"CC(CN1CCCCC1CC1CCCCC1)c1cccc(C(=O)c2ccc(Cl)cc2)c1 (centres unmarked) [Example 20, 2-cyclohexylmethyl-1-{2-[3-(4-chlorobenzoyl)phenyl]propyl}piperidine]",inhibition in vivo at 5 µmol/kg,[1]; [4],63%
same,inhibition in vivo at 20 µmol/kg,[1]; [4],90%
same,toxicity,[1]; dose 0.08 millimoles/kg,Toxic
same,inhibition in vivo at 4 µmol/kg,[2]; [8],16%
same,inhibition in vivo at 20 µmol/kg,[2]; [8],52%
"NC(c1ccccc1)c1cccc(CN2CCOCC2)c1 (stereo not drawn) [Example 16B, 4-{[3-(α-Aminobenzyl)phenyl]methyl}morpholine dihydrochloride monohydrate]",inhibition in vivo at 324 µmol/kg,"[1]; dose 0.324 millimoles/kg, read-out: A.A. percent inhibition",0%
same,inhibition in vivo at 80 µmol/kg,[2]; [5],0%
same,inhibition in vivo at 324 µmol/kg,[2]; [6],36%
"CC(CN1CCCCC1CCCC1CCCCC1)c1cccc(C(=O)c2ccccc2)c1 (centres unmarked) [Example 7D, 2-(3-Cyclohexylpropyl)-1-[2-(3-benzoylphenyl)propyl]piperidine]",inhibition in vivo at 160 µmol/kg,[1]; [4],100%
same,inhibition in vivo at 80 µmol/kg,[2]; [5],37%
same,inhibition in vivo at 324 µmol/kg,[2]; [6],49%
"CC(C(=O)N1CCN(C2CCCCCC2)CC1)c1cccc(Cc2ccccc2)c1.Cl (stereo not drawn) [Example 25B, 4-Cycloheptyl-1-[α-(3-benzylphenyl)propionyl]piperazine hydrochloride]",A.A. percent inhibition (Table B),[1]; dose 0.324 millimoles/kg,78%
same,C.E. percent inhibition (Table B),[2]; dose 0.08 millimoles/kg,25%
same,C.E. percent inhibition (Table B),[2]; dose 0.324 millimoles/kg,44%
"COc1ccc(C(O)c2cccc(C(C)CN3CCCCC3CC3CCCCC3)c2)cc1 (stereo not drawn) [Example 3, 2-cyclohexylmethyl-1-{2-[3-(α-hydroxy-4-methoxybenzyl)phenyl]propyl}piperidine]",inhibition in vivo at 5 µmol/kg,[1]; [4],0%
same,inhibition in vivo at 20 µmol/kg,[1]; [4],2%
same,inhibition in vivo at 80 µmol/kg,[1]; [7],30%
same,inhibition in vivo at 5 µmol/kg,"[2]; dose 0.005 millimoles/kg, read-out: C.E. percent inhibition",0%
same,inhibition in vivo at 20 µmol/kg,[2]; [8],3%
same,inhibition in vivo at 80 µmol/kg,[2]; [5],35%
"CC(C(=O)N1CCC(CC2CCCCC2)CC1)c1cccc(C(=O)c2ccccc2)c1 (stereo not drawn) [Example 1L, 4-Cyclohexylmethyl-1-[α-(3-benzoylphenyl)propionyl]piperidine]","A.A. percent inhibition (Table B, footnote a)",[1]; dose 0.324 millimoles/kg,74%
same,C.E. percent inhibition (Table B),[2]; dose 0.08 millimoles/kg,13%
same,"C.E. percent inhibition (Table B, footnote a)",[2]; dose 0.324 millimoles/kg,31%
"CC(C(=O)N1CCN(C2CCCCC2)CC1)c1cccc(Cc2ccccc2)c1.Cl (stereo not drawn) [Example 25, 4-cyclohexyl-1-[α-(3-benzylphenyl)propionyl]piperazine hydrochloride]",A.A. percent inhibition (Table B),[1]; dose 0.162 millimoles/kg,79%
same,C.E. percent inhibition (Table B),[2]; dose 0.08 millimoles/kg,0%
same,C.E. percent inhibition (Table B),[2]; dose 0.324 millimoles/kg,45%
"CC(CN1C(C)CCCC1C)c1cccc(C(=O)c2ccccc2)c1 (centres unmarked) [Example 13, 2,6-dimethyl-1-[2-(3-benzoylphenyl)propyl]piperidine]",inhibition in vivo at 4 µmol/kg,"[1]; dose 0.004 millimoles/kg, read-out: A.A. percent inhibition",37%
same,inhibition in vivo at 15 µmol/kg,"[1]; dose 0.015 millimoles/kg, read-out: A.A. percent inhibition",52%
same,inhibition in vivo at 60 µmol/kg,"[1]; dose 0.06 millimoles/kg, read-out: A.A. percent inhibition",78%
same,inhibition in vivo at 4 µmol/kg,[2]; [8],0%
same,inhibition in vivo at 15 µmol/kg,"[2]; dose 0.015 millimoles/kg, read-out: C.E. percent inhibition",15%
same,inhibition in vivo at 60 µmol/kg,"[2]; dose 0.06 millimoles/kg, read-out: C.E. percent inhibition",37%
same,inhibition in vivo at 80 µmol/kg,[2]; [5],54%
same,inhibition in vivo at 324 µmol/kg,[2]; [6],56%
"CC(C(=O)N1CCN(c2ccccc2)CC1)c1cccc(C(=O)c2ccccc2)c1 (stereo not drawn) [Example 1F, 4-Phenyl-1-[α-(3-benzoylphenyl)propionyl]piperazine]",A.A. percent inhibition (Table B),[1]; dose 0.324 millimoles/kg,58%
same,C.E. percent inhibition (Table B),[2]; dose 0.08 millimoles/kg,2%
same,C.E. percent inhibition (Table B),[2]; dose 0.324 millimoles/kg,18%
"CC(CN1CCC2(CC1)SCCS2)c1ccc(C(=O)c2ccccc2)cc1.Cl (centres unmarked) [Example 24E, 8-[2-(4-benzoylphenyl)propyl]-1,4-dithia-8-azaspiro[4,5]decane hydrochloride]",ED50,[3],39 mg/kg
"CC(CN1CCOCC1)c1cccc(C(=O)c2ccccc2)c1 (centres unmarked) [7H (base), 4-[2-(3-Benzoylphenyl)propyl]morpholine]",inhibition in vivo at 80 µmol/kg,[1]; [7],81%
same,inhibition in vivo at 4 µmol/kg,[2]; [8],29%
same,inhibition in vivo at 20 µmol/kg,[2]; [8],44%
"CC(CN1CCCCC1)c1cccc(C(=O)c2ccccc2)c1 (centres unmarked) [Example 14A, 1-[2-(3-Benzoylphenyl)propyl]piperidine hydrochloride]",inhibition in vivo at 80 µmol/kg,[1]; [7],49%
same,inhibition in vivo at 80 µmol/kg,[2]; [5],39%
same,inhibition in vivo at 324 µmol/kg,[2]; [6],67%
"CC(CN1CCCCC1CC1CCCCC1)c1cccc(C(=O)c2ccccc2Cl)c1 (centres unmarked) [Example 20D, 2-Cyclohexylmethyl-1-{2-[3-(2-chlorobenzoyl)phenyl]propyl}piperidine]",inhibition in vivo at 5 µmol/kg,[1]; [4],35%
same,inhibition in vivo at 20 µmol/kg,[1]; [4],54%
same,inhibition in vivo at 80 µmol/kg,[1]; [7],79%
same,inhibition in vivo at 4 µmol/kg,[2]; [8],0%
same,inhibition in vivo at 20 µmol/kg,[2]; [8],36%
"CC(CN1CCCCC1CC1CCCCC1)c1cccc(C(N)c2ccccc2)c1 (stereo not drawn) [Example 16, 2-cyclohexylmethyl-1-{2-[3-(α-aminobenzyl)phenyl]propyl}piperidine dihydrochloride]",inhibition in vivo at 5 µmol/kg,[1]; [4],80%
same,inhibition in vivo at 20 µmol/kg,[1]; [4],89%
same,inhibition in vivo at 80 µmol/kg,[1]; [7],108%
same,inhibition in vivo at 4 µmol/kg,[2]; [8],16%
same,inhibition in vivo at 20 µmol/kg,[2]; [8],31%
"CC(CN1CCC2(CC1)OCCO2)c1ccc(C(=O)c2ccccc2)cc1.Cl (centres unmarked) [Example 24B, 8-[2-(4-benzoylphenyl)propyl]1,4-dioxa-8-azaspiro[4,5]decane hydrochloride]",inhibition in vivo at 80 µmol/kg,[1]; [7],30%
same,toxicity,[1]; dose 0.324 millimoles/kg,Toxic
same,inhibition in vivo at 80 µmol/kg,[2]; [5],38%
same,inhibition in vivo at 324 µmol/kg,[2]; [6],50%
"CC(C(=O)N1CCCCC1CC1CCCCC1)c1cccc(C(=O)c2ccccc2)c1 (stereo not drawn) [Example 1 (Table B), 2-cyclohexylmethyl-1-[α-(3-benzoylphenyl)propionyl]piperidine]","A.A. percent inhibition (Table B, footnote a)",[1]; dose 0.324 millimoles/kg,67%
same,C.E. percent inhibition (Table B),[2]; dose 0.08 millimoles/kg,21%
same,"C.E. percent inhibition (Table B, footnote a)",[2]; dose 0.324 millimoles/kg,36%
"COc1ccc(C(=O)c2cccc(C(C)CN3CCCCC3CC3CCCCC3)c2)cc1 (centres unmarked) [Example 7, 2-cyclohexylmethyl-1-{2-[3-(4-methoxybenzoyl)phenyl]propyl}piperidine]",inhibition in vivo at 80 µmol/kg,[1]; [7],63%
same,inhibition in vivo at 4 µmol/kg,[2]; [8],0%
same,inhibition in vivo at 20 µmol/kg,[2]; [8],22%
"CC(C(=O)N1CCN(C2CCCCC2)CC1)c1cccc(C(=O)c2ccccc2)c1.Cl (stereo not drawn) [Example 1E, 4-Cyclohexyl-1-[α-(3-benzoylphenyl)propionyl]piperazine hydrochloride]",A.A. percent inhibition (Table B),[1]; dose 0.08 millimoles/kg,63%
same,convulsions and salivation,"[2]; C.E. test, dose 0.324 millimoles/kg",Convulsions and salivation produced in 2 of 8 test animals
same,C.E. percent inhibition (Table B),[2]; dose 0.08 millimoles/kg,10%
same,C.E. percent inhibition (Table B),[2]; dose 0.324 millimoles/kg,61%
"CC(CN1CCCCC1CC1CCCCC1)c1cccc(C(=NO)c2ccccc2)c1 (centres unmarked) [Example 15, 2-cyclohexylmethyl-1-[2-(3-benzoylphenyl)propyl]piperidine oxime]",inhibition in vivo at 20 µmol/kg,[1]; [4],92%
same,inhibition in vivo at 80 µmol/kg,[1]; [7],91%
same,inhibition in vivo at 4 µmol/kg,[2]; [8],16%
same,inhibition in vivo at 20 µmol/kg,[2]; [8],43%
"CC(CN1CCCC1CC1CCCCC1)c1cccc(C(=O)c2ccccc2)c1 (centres unmarked) [Example 7A, 2-Cyclohexylmethyl-1-[2-(3-benzoylphenyl)propyl]pyrrolidine]",inhibition in vivo at 160 µmol/kg,[1]; [4],90%
same,inhibition in vivo at 80 µmol/kg,[2]; [5],45%
same,inhibition in vivo at 324 µmol/kg,[2]; [6],60%
